Experimental data from patent US7897582B2, “Oligonucleotide compositions and methods for the modulation of the expression of B7 protein” (Isis Pharmaceuticals, Inc., priority 2003, dated 2011).
Strand notation (5' to 3'): a small letter for the sugar, then the base; units joined by * are phosphorothioate-linked, units joined directly phosphodiester-linked; [ ] holds rarer units or linkages, { } end groups; capitals alone tell only the bases. e = 2'-O-(2-methoxyethyl) (MOE); [5mC] = 5-methylcytosine; d = 2'-deoxy (DNA)

What was measured:
Human B7-1 mRNA = Human B7-1 mRNA expression in COS-7 cells, screened as in Example 4; format: cell-based; settings: COS-7, Table 8
human B7.2 mRNA = assay: Human B7.2 mRNA levels in THP-1 cells by quantitative real-time PCR (Example 27); format: cell-based; parameters: concentration or dose not given beside the values
Excerpt: In accordance with the present invention, an additional series of antisense compounds were designed to target different regions of the human B7.2 RNA, using published sequences (GenBank accession number U04343.1, incorporated herein as SEQ ID NO: 295, GenBank accession number BC040261.1, incorporated herein as SEQ ID NO: 296 and GenBank accession number NT—005543.12, a portion of which is incorporated herein as SEQ ID NO: 297). “Target site” indicates the first (5′-most) nucleotide number on the particular target sequence to which the compound binds. All compounds in Table 25 are chimeric oligonucleotides (“gapmers”) 20 nucleotides in length, composed of a central “gap” region consisting of ten 2′-deoxynucleotides, which is flanked on both sides (5′ and 3′ directions) by five-nucleotide “wings”. The wings are composed of 2′-methoxyethyl (2′-MOE)nucleotides. The internucleoside (backbone) linkages are phosphorothioate (P═S) throughout the oligonucleotide. All cytidine residues are 5-methylcytidines. The compounds were analyzed for their effect on human B7.2 mRNA levels in THP-1 cells by quantitative real-time PCR as described in other examples herein. Data are averages from three experiments. If present, “N.D.” indicates “no data”.

Row | Substance | % INHIB (inhibition of human B7.2 mRNA levels) (human B7.2 mRNA) | other results
1 | 24734 (antisense e[5mC]*eG*eT*eT*eG*d[5mC]*dT*dT*dG*dT*dG*d[5mC]*d[5mC]*dG*dA*e[5mC]*eA*eG*eT*eG) [compound 24734] |  | % mRNA EXPRESSION (Human B7-1 mRNA; 10 nM): 94%; % mRNA INHIBITION (Human B7-1 mRNA; 10 nM): 6%; % mRNA EXPRESSION (Human B7-1 mRNA; 30 nM): 96%; % mRNA INHIBITION (Human B7-1 mRNA; 30 nM): 4%; % mRNA EXPRESSION (Human B7-1 mRNA; 100 nM): 94%; % mRNA INHIBITION (Human B7-1 mRNA; 100 nM): 6%; % mRNA EXPRESSION (Human B7-1 mRNA; 300 nM): 84%; % mRNA INHIBITION (Human B7-1 mRNA; 300 nM): 16%
2 | 24735 (antisense eG*e[5mC]*eT*e[5mC]*eA*d[5mC]*dG*dA*dA*dG*dA*dA*d[5mC]*dA*d[5mC]*e[5mC]*eT*eT*e[5mC]*e[5mC]) [compound 24735] |  | % mRNA EXPRESSION (Human B7-1 mRNA; 10 nM): 100%; % mRNA EXPRESSION (Human B7-1 mRNA; 30 nM): 95%; % mRNA INHIBITION (Human B7-1 mRNA; 30 nM): 5%; % mRNA EXPRESSION (Human B7-1 mRNA; 100 nM): 81%; % mRNA INHIBITION (Human B7-1 mRNA; 100 nM): 19%; % mRNA EXPRESSION (Human B7-1 mRNA; 300 nM): 75%; % mRNA INHIBITION (Human B7-1 mRNA; 300 nM): 25%
3 | 323624 (antisense eG*eT*eT*eA*e[5mC]*dT*d[5mC]*dA*dG*dT*d[5mC]*d[5mC]*d[5mC]*dA*dT*eA*eG*eT*eG*e[5mC]) [compound 323624] | 59% | 
4 | 323625 (antisense e[5mC]*eA*eA*eA*eG*dA*dG*dA*dA*dT*dG*dT*dT*dA*d[5mC]*eT*e[5mC]*eA*eG*eT) [compound 323625] | 21% | 
5 | 323626 (antisense e[5mC]*e[5mC]*eA*eT*e[5mC]*dA*d[5mC]*dA*dA*dA*dG*dA*dG*dA*dA*eT*eG*eT*eT*eA) [compound 323626] | 32% | 
6 | 323627 (antisense eG*eG*eA*eA*eG*dG*d[5mC]*d[5mC]*dA*dT*d[5mC]*dA*d[5mC]*dA*dA*eA*eG*eA*eG*eA) [compound 323627] | 54% | 
7 | 323628 (antisense eG*eA*eG*e[5mC]*eA*dG*dG*dA*dA*dG*dG*d[5mC]*d[5mC]*dA*dT*e[5mC]*eA*e[5mC]*eA*eA) [compound 323628] | 44% | 
8 | 323629 (antisense e[5mC]*e[5mC]*eA*eG*eA*dG*dA*dG*d[5mC]*dA*dG*dG*dA*dA*dG*eG*e[5mC]*e[5mC]*eA*eT) [compound 323629] | 36% | 
9 | 323630 (antisense eA*eA*eA*eT*eA*dA*dG*d[5mC]*dT*dT*dG*dA*dA*dT*d[5mC]*eT*eT*e[5mC]*eA*eG) [compound 323630] | 22% | 
10 | 323631 (antisense eA*eG*eT*e[5mC]*eT*d[5mC]*dA*dT*dT*dG*dA*dA*dA*dT*dA*eA*eG*e[5mC]*eT*eT) [compound 323631] | 56% | 
11 | 323632 (antisense eA*eG*eG*eT*e[5mC]*dT*dG*d[5mC]*dA*dG*dT*d[5mC]*dT*d[5mC]*dA*eT*eT*eG*eA*eA) [compound 323632] | 41% | 
12 | 323633 (antisense e[5mC]*eT*eA*e[5mC]*eT*dA*dG*d[5mC]*dT*d[5mC]*dA*d[5mC]*dT*d[5mC]*dA*eG*eG*e[5mC]*eT*eT) [compound 323633] | 50% | 
13 | 323634 (antisense eA*eA*eA*eT*eA*d[5mC]*dT*dA*d[5mC]*dT*dA*dG*d[5mC]*dT*d[5mC]*eA*e[5mC]*eT*e[5mC]*eA) [compound 323634] | 30% | 
14 | 323635 (antisense e[5mC]*eT*eG*e[5mC]*e[5mC]*dA*dA*dA*dA*dT*dA*d[5mC]*dT*dA*d[5mC]*eT*eA*eG*e[5mC]*eT) [compound 323635] | 24% | 
15 | 323636 (antisense eT*eT*e[5mC]*eA*eG*dA*dA*d[5mC]*d[5mC]*dA*dA*dG*dT*dT*dT*eT*e[5mC]*e[5mC]*eT*eG) [compound 323636] | 23% | 
16 | 323637 (antisense e[5mC]*e[5mC]*eT*e[5mC]*eA*dT*dT*d[5mC]*dA*dG*dA*dA*d[5mC]*d[5mC]*dA*eA*eG*eT*eT*eT) [compound 323637] | 19% | 
17 | 323638 (antisense eG*eT*eA*eT*eA*d[5mC]*d[5mC]*dT*d[5mC]*dA*dT*dT*d[5mC]*dA*dG*eA*eA*e[5mC]*e[5mC]*eA) [compound 323638] | 20% | 
18 | 323639 (antisense eG*e[5mC]*e[5mC]*eT*eA*dA*dG*dT*dA*dT*dA*d[5mC]*d[5mC]*dT*d[5mC]*eA*eT*eT*e[5mC]*eA) [compound 323639] | 55% | 
19 | 323640 (antisense e[5mC]*eT*e[5mC]*eT*eT*dT*dG*d[5mC]*d[5mC]*dT*dA*dA*dG*dT*dA*eT*eA*e[5mC]*e[5mC]*eT) [compound 323640] | 28% | 
20 | 323641 (antisense e[5mC]*e[5mC]*e[5mC]*eA*eT*dA*dT*dA*d[5mC]*dT*dT*dG*dG*dA*dA*eT*eG*eA*eA*e[5mC]) [compound 323641] | 88% | 
21 | 323642 (antisense e[5mC]*eT*eT*eG*eT*dG*d[5mC]*dG*dG*d[5mC]*d[5mC]*d[5mC]*dA*dT*dA*eT*eA*e[5mC]*eT*eT) [compound 323642] | 27% | 

Row | Substance | % INHIB (inhibition of human B7.2 mRNA levels) (human B7.2 mRNA) | other results
22 | 323643 (antisense eA*eT*e[5mC]*eA*eA*dA*dA*d[5mC]*dT*dT*dG*dT*dG*d[5mC]*dG*eG*e[5mC]*e[5mC]*e[5mC]*eA) [compound 323643] | 80% | 
23 | 323644 (antisense e[5mC]*e[5mC]*e[5mC]*eT*eT*dG*dT*d[5mC]*d[5mC]*dT*dT*dG*dA*dT*d[5mC]*eT*eG*eA*eA*eG) [compound 323644] | 71% | 
24 | 323645 (antisense eA*e[5mC]*eA*eA*eG*d[5mC]*d[5mC]*d[5mC]*dT*dT*dG*dT*d[5mC]*d[5mC]*dT*eT*eG*eA*eT*e[5mC]) [compound 323645] | 56% | 
25 | 323646 (antisense eT*eT*eG*eA*eT*dA*d[5mC]*dA*dA*dG*d[5mC]*d[5mC]*d[5mC]*dT*dT*eG*eT*e[5mC]*e[5mC]*eT) [compound 323646] | 33% | 
26 | 323647 (antisense eA*eT*eA*e[5mC]*eA*dT*dT*dG*dA*dT*dA*d[5mC]*dA*dA*dG*e[5mC]*e[5mC]*e[5mC]*eT*eT) [compound 323647] | 41% | 
27 | 323648 (antisense eT*eG*eG*eA*eT*dG*dA*dT*dA*d[5mC]*dA*dT*dT*dG*dA*eT*eA*e[5mC]*eA*eA) [compound 323648] | 31% | 
28 | 323649 (antisense eG*eA*eA*eT*eT*d[5mC]*dA*dT*d[5mC]*dT*dG*dG*dT*dG*dG*eA*eT*eG*e[5mC]*eG) [compound 323649] | 81% | 
29 | 323650 (antisense eG*eT*eT*e[5mC]*eA*dG*dA*dA*dT*dT*d[5mC]*dA*dT*d[5mC]*dT*eG*eG*eT*eG*eG) [compound 323650] | 92% | 
30 | 323651 (antisense eT*eG*eA*e[5mC]*eA*dG*dT*dT*d[5mC]*dA*dG*dA*dA*dT*dT*e[5mC]*eA*eT*e[5mC]*eT) [compound 323651] | 64% | 
31 | 323652 (antisense eA*eG*e[5mC]*eA*e[5mC]*dT*dG*dA*d[5mC]*dA*dG*dT*dT*d[5mC]*dA*eG*eA*eA*eT*eT) [compound 323652] | 87% | 
32 | 323653 (antisense eT*eA*eG*e[5mC]*eA*dA*dG*d[5mC]*dA*d[5mC]*dT*dG*dA*d[5mC]*dA*eG*eT*eT*e[5mC]*eA) [compound 323653] | 96% | 
33 | 323654 (antisense eT*eG*eA*eA*eG*dT*dT*dA*dG*d[5mC]*dA*dA*dG*d[5mC]*dA*e[5mC]*eT*eG*eA*e[5mC]) [compound 323654] | 87% | 
34 | 323655 (antisense eT*eT*eG*eA*e[5mC]*dT*dG*dA*dA*dG*dT*dT*dA*dG*d[5mC]*eA*eA*eG*e[5mC]*eA) [compound 323655] | 65% | 
35 | 323656 (antisense e[5mC]*eT*eA*eT*eT*dT*d[5mC]*dA*dG*dG*dT*dT*dG*dA*d[5mC]*eT*eG*eA*eA*eG) [compound 323656] | 76% | 
36 | 323657 (antisense eT*e[5mC]*eT*eG*eT*dT*dA*dT*dA*dT*dT*dA*dG*dA*dA*eA*eT*eT*eG*eG) [compound 323657] | 43% | 
37 | 323658 (antisense eG*e[5mC]*eA*eG*eG*dT*d[5mC]*dA*dA*dA*dT*dT*dT*dA*dT*eG*eT*eA*e[5mC]*eA) [compound 323658] | 36% | 
38 | 323659 (antisense eG*eT*eA*eT*eA*dG*dA*dT*dG*dA*dG*d[5mC]*dA*dG*dG*eT*e[5mC]*eA*eA*eA) [compound 323659] | 56% | 
39 | 323660 (antisense eG*eG*eG*eT*eA*dA*d[5mC]*d[5mC]*dG*dT*dG*dT*dA*dT*dA*eG*eA*eT*eG*eA) [compound 323660] | 71% | 
40 | 323661 (antisense eA*eG*eG*eT*eT*d[5mC]*dT*dG*dG*dG*dT*dA*dA*d[5mC]*d[5mC]*eG*eT*eG*eT*eA) [compound 323661] | 68% | 
41 | 323662 (antisense eT*eA*eG*e[5mC]*eA*dA*dA*dA*d[5mC]*dA*d[5mC]*dT*d[5mC]*dA*dT*e[5mC]*eT*eT*e[5mC]*eT) [compound 323662] | 22% | 
